The source of these data is BindingDB's records for doi:10.1016/0960-894X(95)00583-F (1996).

Each structure is given as a SMILES string. pKi: −log10 of the molar value.

The nature of this assay: Compound was evaluated for binding affinity against [3H]- Cl-DPDPE labeled Opioid receptor delta 1 in guinea-pig brain homogenate.
For orientation: pKi means the Ki on a negative log10 scale, so that one unit is a factor of ten. Read a low pKi as a high Ki. Regarding `O=C(/C=C/c1ccc(Cl)cc1)N[C@@H]1CC[C@@]2(O)[C@H]3Cc4ccc(O)c5c4C2(CCN3CC2CC2)[C@H]1O5` [1N-[4-cyclopropylmethyl-10,17-dihydroxy-(5R,13R,14R,17S)-12-oxa-4-azapentacyclo[9.6.1.01,13.05,17.07,18]octadeca-7(18),8,10-trien-14-yl]-3-(4-chlorophenyl)-(E)-2-propenamide], the pKi is 8.30.

Turning to `Cc1ccc(/C=C/C(=O)N[C@@H]2CC[C@@]3(O)[C@H]4Cc5ccc(O)c6c5C3(CCN4CC3CC3)[C@H]2O6)cc1` [1N-[4-cyclopropylmethyl-10,17-dihydroxy-(5R,13R,14R,17S)-12-oxa-4-azapentacyclo[9.6.1.01,13.05,17.07,18]octadeca-7(18),8,10-trien-14-yl]-3-(4-methylphenyl)-(E)-2-propenamide], the pKi was 8.02. For `O=C(/C=C/c1ccc([N+](=O)[O-])cc1)N[C@@H]1CC[C@@]2(O)[C@H]3Cc4ccc(O)c5c4C2(CCN3CC2CC2)[C@H]1O5` [1N-[4-cyclopropylmethyl-10,17-dihydroxy-(5R,13R,14R,17S)-12-oxa-4-azapentacyclo[9.6.1.01,13.05,17.07,18]octadeca-7(18),8,10-trien-14-yl]-3-(4-nitrophenyl)-(E)-2-propenamide], the negative logarithm of the Ki (pKi) was 8.29. In turn, `O=C(/C=C/c1ccccc1)N[C@@H]1CC[C@@]2(O)[C@H]3Cc4ccc(O)c5c4[C@@]2(CCN3CC2CC2)[C@H]1O5` [17-Cyclopropylmethyl-3,14beta-dihydroxy-4,5alpha-epoxy-6beta-(cinnamoylamino)morphinan] had a pKi of 8.51. In turn, `COC(=O)/C=C/C(=O)N[C@@H]1CC[C@@]2(O)[C@H]3Cc4ccc(O)c5c4[C@@]2(CCN3CC2CC2)[C@H]1O5` [Beta-Funeltrexamine] showed a pKi of 7.66.
